Consider one molecule from patent publication US4670419A, “Pharmaceutical composition and its rectal use” (Takeda Chemical Industries, Ltd., priority 1982, dated 1987).

Molecules are shown by their SMILES.

Data set [1] in a line: in vivo. As to conditions: rat, 100 ug/kg, Concentration in Serum. The method, then:
In 0.1 ml of physiological saline are dissolved 100 μg of TAP-144 and 5 mg of α-cyclodextrin, and in the manner of Experimental Example 1, the 0.1 ml/kg equivalent of the solution is administered into the nasal cavity (the dose of TAP-144: 100 μg/kg).

The conditions of data set [2]: rat, in vivo.
Method: (§1) SD-strain mature female rats (weighing about 270 g, 14 to 18 weeks old, in groups of 4 to 5 individuals) at diestrus as selected by the vaginal smear test covering a period of at least one week are anesthetized with pentobarbital and phenobarbital at 8-11 a.m., and a solution prepared by dissolving 500 μg of TAP-144 and 20 mg (2%), 50 mg (5%) or 100 mg (10%) of α-cyclodextrin in physiological saline in an amount to make 1 ml is administered into the vagina with about 12 mg of cotton soaked therewith at the dose level of 0.2 ml/kg (corresponding 100 μg/kg of TAP-144).
Data set [3] is described as follows: in vivo. As to conditions: female, SD, rat, iv, 100 ug/kg.
Method: as §1

Turning to `CCNC(=O)[C@@H]1CCCN1C(=O)[C@H](CCCNC(=N)N)NC(=O)[C@H](CC(C)C)NC(=O)[C@@H](CC(C)C)NC(=O)[C@H](Cc1ccc(O)cc1)NC(=O)[C@H](CO)NC(=O)[C@H](Cc1c[nH]c2ccccc12)NC(=O)[C@H](Cc1c[nH]cn1)NC(=O)[C@@H]1CCC(=O)N1` [TAP-144], in data set [1] (SD (Sprague-Dawley), sc), the level at 0.5 h stood at 44 ng/mL, the level at 1 h is 40.2 ng/mL, the level at 2 h was 24 ng/mL and the level at 4 h was 6.7 ng/mL. Also, in data set [1] (SD, inhaled or intranasal), the level at 0.5 h is 3.2 ng/mL and the level at 4 h worked out at 3.9 ng/mL. The “promotion of vaginal absorption as compared with the control vaginal preparation” value in data set [2] is on record as “about 6 times”. Further, the “Concentration of TAP-144 in serum” value in data set [2] (100 ug/kg, 0.5 h) came to 32.1 ng/mL. In data set [3], this molecule registered a level at 5 min of 212 ng/mL, a level at 10 min of 173 ng/mL, a level at 0.5 h of 74.2 ng/mL and a level at 1 h of 39.3 ng/mL. In data set [3], the level at 2 h was determined as 6.76 ng/mL, the level at 4 h came out at 1.83 ng/mL and the level at 6 h was less than 0.13 ng/mL.
